Assay results: US9023821B2, “Use of MicroRNA for treating diseases associated with a dysfunction of the cilia in multiciliated epithelial cells” (Centre National de la Recherche Scientifique, priority 2009, dated 2015)

What was measured:
[1] = tested on: basal cells and pyramidal cells of the airway epithelium; assay: miRNA expression in sorted basal cells versus pyramidal cells (ciliated + secretory), HTS and Agilent chips; set-up: species or system human; details: for Modulation of expression of the miRNAs in pyramidal cells (323(−)) relative to basal cells 323(+): HTS and Agilent chips; for Intensity of the level of expression in log2 in pyramidal cells (323(−)): pyramidal cells (ciliated + secretory)
How it was run: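 Sorted basal versus ciliated/mucus-secreting cells; markers CD151 and tissue factor; donors n=3; miRNA by Agilent chip or HTS.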

[2] = tested on: human airway epithelial cells (HAECs); assay: High-throughput sequencing (HTS) of miRNAs at four stages of differentiation of HAECs; details: for Modulation (ratio of the level of intensity of expression in log2 in two stages of differentiation) measured by high-throughput sequencing, D7 − D0 / Modulation (ratio of the level of intensity of expression in log2 in two stages of differentiation) measured by high-throughput sequencing, FC − D7 / Modulation (ratio of the level of intensity of expression in log2 in two stages of differentiation) measured by high-throughput sequencing, WD − D0 / Modulation (ratio of the level of intensity of expression in log2 in two stages of differentiation) measured by high-throughput sequencing, WD − FC / Level of intensity of expression in log2 measured by high-throughput sequencing, D0 / Level of intensity of expression in log2 measured by high-throughput sequencing, D7 / Level of intensity of expression in log2 measured by high-throughput sequencing, FC / Level of intensity of expression in log2 measured by high-throughput sequencing, WD: Table VI; for Level of intensity of expression in log2 At the differentiated stage (WD) measured in HTS: healthy human airway epithelial tissue; for Level of intensity of expression in log2 measured by high-throughput sequencing, D0: stage D0; for Level of intensity of expression in log2 measured by high-throughput sequencing, D7: stage D7; for Level of intensity of expression in log2 measured by high-throughput sequencing, FC: stage FC; for Level of intensity of expression in log2 At the differentiated stage (WD) measured in HTS / Level of intensity of expression in log2 measured by high-throughput sequencing, WD: stage WD
How it was run: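 Differentiation time course at air-liquid interface: 0, 7, ~14 (first cilia) and ~21 days (fully differentiated). Sequencing counts per strand were normalized to 10^6 sequences and analysed by linear model with empirical Bayesian moderation.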

[3] = tested on: human airway epithelial cells (HAECs); assay: Agilent miRNA chips, miRNA expression at four stages of differentiation of HAECs; details: for Modulation (ratio of the level of intensity of expression in log2 in two stages of differentiation) measured with the Agilent chips, D7 − D0 / Modulation (ratio of the level of intensity of expression in log2 in two stages of differentiation) measured with the Agilent chips, FC − D7 / Modulation (ratio of the level of intensity of expression in log2 in two stages of differentiation) measured with the Agilent chips, WD − D0 / Modulation (ratio of the level of intensity of expression in log2 in two stages of differentiation) measured with the Agilent chips, WD − FC / Level of intensity of expression in log2 measured with the Agilent chips, D0 / Level of intensity of expression in log2 measured with the Agilent chips, D7 / Level of intensity of expression in log2 measured with the Agilent chips, FC / Level of intensity of expression in log2 measured with the Agilent chips, WD: Table VI; for Modulation (ratio of the level of intensity of expression in log2 at two stages of differentiation), FC − D7 / Modulation (ratio of the level of intensity of expression in log2 at two stages of differentiation), WD − FC: Agilent miRNA chips, Table V; for Level of intensity of expression in log2 measured with the Agilent chips, D0: stage D0; for Level of intensity of expression in log2 measured with the Agilent chips, D7: stage D7; for Level of intensity of expression in log2 measured with the Agilent chips, FC: stage FC; for Level of intensity of expression in log2 measured with the Agilent chips, WD: stage WD
How it was run: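 Expression read from hybridization signals on Human miRNA Microarray v2 arrays spanning all miRBase v.12.0 human miRNAs plus 89 viral ones. Samples are RNA from the same patients profiled by sequencing, labelled with the standard kit.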

Substance: hsa-miR-30e: human miRNA, SEQ ID No. 36 (UGUAAACAUCCUUGACUGGAAG; expressed or natural sequence; listed as Homo sapiens)
- Modulation of expression of the miRNAs in pyramidal cells (323(−)) relative to basal cells 323(+) [1]: −1.60
- Intensity of the level of expression in log2 in basal cells (323(+)) [1]: 6.94 log2
- Intensity of the level of expression in log2 in pyramidal cells (323(−)) [1]: 5.34 log2
- Modulation (ratio of the level of intensity of expression in log2 in two stages of differentiation) measured by high-throughput sequencing, D7 − D0 [2]: 1.27 log2
- Modulation (ratio of the level of intensity of expression in log2 in two stages of differentiation) measured by high-throughput sequencing, FC − D7 [2]: −0.02 log2
- Modulation (ratio of the level of intensity of expression in log2 in two stages of differentiation) measured by high-throughput sequencing, WD − D0 [2]: 1.71 log2
- Modulation (ratio of the level of intensity of expression in log2 in two stages of differentiation) measured by high-throughput sequencing, WD − FC [2]: 0.46 log2
- Level of intensity of expression in log2 At the differentiated stage (WD) measured in HTS [2]: 12.74 log2
- Level of intensity of expression in log2 measured by high-throughput sequencing, D0 [2]: 7.04 log2
- Level of intensity of expression in log2 measured by high-throughput sequencing, D7 [2]: 8.31 log2
- Level of intensity of expression in log2 measured by high-throughput sequencing, FC [2]: 8.30 log2
- Level of intensity of expression in log2 measured by high-throughput sequencing, WD [2]: 8.76 log2
- Modulation (ratio of the level of intensity of expression in log2 in two stages of differentiation) measured with the Agilent chips, D7 − D0 [3]: 2.76 log2
- Modulation (ratio of the level of intensity of expression in log2 at two stages of differentiation), FC − D7 [3]: −0.25 log2
- Modulation (ratio of the level of intensity of expression in log2 in two stages of differentiation) measured with the Agilent chips, FC − D7 [3]: −0.25 log2
- Modulation (ratio of the level of intensity of expression in log2 in two stages of differentiation) measured with the Agilent chips, WD − D0 [3]: 2.38 log2
- Modulation (ratio of the level of intensity of expression in log2 at two stages of differentiation), WD − FC [3]: −0.13 log2
- Modulation (ratio of the level of intensity of expression in log2 in two stages of differentiation) measured with the Agilent chips, WD − FC [3]: −0.13 log2
- Level of intensity of expression in log2 measured with the Agilent chips, D0 [3]: 6.73 log2
- Level of intensity of expression in log2 measured with the Agilent chips, D7 [3]: 9.50 log2
- Level of intensity of expression in log2 measured with the Agilent chips, FC [3]: 9.25 log2
- Level of intensity of expression in log2 measured with the Agilent chips, WD [3]: 9.12 log2

Substance: hsa-miR-34a: human miRNA, SEQ ID No. 38 (UGGCAGUGUCUUAGCUGGUUGU; expressed or natural sequence; listed as Homo sapiens)
- Modulation of expression of the miRNAs in pyramidal cells (323(−)) relative to basal cells 323(+) [1]: 0.64
- Intensity of the level of expression in log2 in basal cells (323(+)) [1]: 6.72 log2
- Intensity of the level of expression in log2 in pyramidal cells (323(−)) [1]: 7.36 log2
- Modulation (ratio of the level of intensity of expression in log2 in two stages of differentiation) measured by high-throughput sequencing, D7 − D0 [2]: 1.46 log2
- Modulation (ratio of the level of intensity of expression in log2 in two stages of differentiation) measured by high-throughput sequencing, FC − D7 [2]: −1.04 log2
- Modulation (ratio of the level of intensity of expression in log2 in two stages of differentiation) measured by high-throughput sequencing, WD − D0 [2]: 0.88 log2
- Modulation (ratio of the level of intensity of expression in log2 in two stages of differentiation) measured by high-throughput sequencing, WD − FC [2]: 0.45 log2
- Level of intensity of expression in log2 At the differentiated stage (WD) measured in HTS [2]: 13.75 log2
- Level of intensity of expression in log2 measured by high-throughput sequencing, D0 [2]: 10.31 log2
- Level of intensity of expression in log2 measured by high-throughput sequencing, D7 [2]: 11.77 log2
- Level of intensity of expression in log2 measured by high-throughput sequencing, FC [2]: 10.73 log2
- Level of intensity of expression in log2 measured by high-throughput sequencing, WD [2]: 11.18 log2
- Modulation (ratio of the level of intensity of expression in log2 in two stages of differentiation) measured with the Agilent chips, D7 − D0 [3]: 2.31 log2
- Modulation (ratio of the level of intensity of expression in log2 at two stages of differentiation), FC − D7 [3]: −0.54 log2
- Modulation (ratio of the level of intensity of expression in log2 in two stages of differentiation) measured with the Agilent chips, FC − D7 [3]: −0.54 log2
- Modulation (ratio of the level of intensity of expression in log2 in two stages of differentiation) measured with the Agilent chips, WD − D0 [3]: 1.91 log2
- Modulation (ratio of the level of intensity of expression in log2 at two stages of differentiation), WD − FC [3]: 0.13 log2
- Modulation (ratio of the level of intensity of expression in log2 in two stages of differentiation) measured with the Agilent chips, WD − FC [3]: 0.13 log2
- Level of intensity of expression in log2 measured with the Agilent chips, D0 [3]: 8.58 log2
- Level of intensity of expression in log2 measured with the Agilent chips, D7 [3]: 10.89 log2
- Level of intensity of expression in log2 measured with the Agilent chips, FC [3]: 10.35 log2
- Level of intensity of expression in log2 measured with the Agilent chips, WD [3]: 10.49 log2
